Article PMC9043997, “LEAP2 reduces postprandial glucose excursions and ad libitum food intake in healthy men” (Cell Reports Medicine, 2022)
Where a SMILES comes first, the peptide text is derived from it. Bridges are numbered along the chain shown (N, C = ends).

Assays:
Type in all cases: in vivo, human
healthy men [1] = test: Visual analog scale ratings of appetite-related sensations, crossover study; settings: healthy men n = 20, iv LEAP2 ~25 pmol/kg/min, 100 mm VAS, paired t test of AUC
Method: Sensations of hunger, satiety, prospective food consumption, fullness, nausea, comfort and thirst were rated on 100 mm VAS at timepoints −35, 0, 30, 75, 105, 135, 165, 195, 225 and 255 min and after the ad libitum meal.[34] After eating, participants evaluated the ad libitum meal by VAS with a score (median (interquartile range)) for appearance of 55 (36–72) mm, taste 65 (42–76) mm, off-notes 17 (7–31) mm, smell 63 (50–72) mm and overall impression 59 (45–73) mm indicating a moderate evaluation of the meal.

[2] = Pharmacokinetic parameters of exogenous LEAP2 in healthy men (one-compartment model)
Method: Eight healthy men, recruited among participants in the placebo-controlled, crossover study, were included in an additional clinical study investigating the kinetic parameters of exogenous LEAP2. Each participant underwent a single experimental day with intravenous infusion of LEAP2 (10 min at a rate of ∼101 pmol/kg/min followed by 110 min at ∼25 pmol/kg/min) (see Figure S1B for an overview of the clinical study design). […] Fasting schedule for participants and all instructions from 48 h prior to the experimental day were similar to the placebo-controlled, crossover study. […] LEAP2 infusion was started at timepoint 0 min and discontinued after 120 min. Blood samples were drawn every 15 min from timepoint −30 to 270 min and, additionally, at timepoints 118, 122, 124, 127 and 130 min. Plasma glucose was measured bedside every 15 min from timepoint −30 to 180 min and every 30 min from timepoint 180 to 270 min with a mean concentration of 4.85 ± 0.02 mmol/L. For analytical procedures related to plasma glucose and LEAP2 concentrations, please see the section “Human plasma analyses”. Every 30 min from time −30 to 270 min, participants rated appetite-related sensations on 100 mm VAS[34] with a score (median (interquartile range)) for hunger of 72 (59–79) mm, prospective food consumption 73 (65–82) mm, satiety 22 (14–33) mm, fullness 21 (12–31) mm, comfort 78 (72–90) mm, thirst 78 (71–89) mm and nausea 3.0 (0–9.0).
We constructed and applied a pharmacokinetic model to the data using the software Monolix (Monolix version 2019R1; Lixoft SAS, Antony, France). The parameters were estimated using the Stochastic Approximation EM algorithm.[22] The one-compartment model assumed input from both endogenous LEAP2 secretion and the exogenous LEAP2 infusion assuming that LEAP2 kinetics followed a single-exponential elimination. We assumed that the endogenous production of LEAP2 was constant i.e. not suppressed during infusion of exogenous LEAP2. This model probably represents a simplification of the actual physiological LEAP2 kinetics, but the data fitted well to model predictions.

healthy men [3] = test: Plasma glucagon during LEAP2 infusion, crossover study; settings: mean ± SEM
Description: The infusion was terminated when participants had finished eating.
For analysis of plasma glucose, blood was distributed in fluoride heparin-coated tubes, centrifuged immediately for 30 s (12,100 g, room temperature) and measured bedside by the glucose oxidase method (YSI 2900 Biochemistry Analyzer; YSI Incorporated, Yellow Springs, Ohio, USA). For analysis of LEAP2, blood was collected in chilled K3EDTA tubes each containing 250 KIU of aprotinin. For analysis of acyl ghrelin, blood was collected in chilled K2EDTA tubes added 20 μL pefabloc (100 mg/mL; Merck Millipore, Burlington, Massachusetts, USA). Subsequently, pefabloc-treated plasma was acidified with HCl (12.5 μL 2M HCl per 500 μL plasma; Merck Millipore, Burlington, Massachusetts, USA). For analysis of glucagon, blood was collected in K2EDTA tubes. For analysis of GH, insulin, C-peptide, free fatty acids, glycerol, triglycerides and acetaminophen (paracetamol), blood was collected in tubes with lithium and heparin. All tubes were immediately cooled on ice, centrifuged for 15 min (2,000 g, 4°C) and stored at −80°C until analysis. LEAP2 concentrations were determined by an in-house radioimmunoassay directed against the N-terminal part of LEAP2. LEAP-2 was used for standards, and the tracer was a peptide composed of the 12 N-terminal amino acids of LEAP2, with a ^125I-labelled tyrosine added to the C-terminal end. The precision and accuracy of the assay were evaluated based on European Medicines Agency's guidelines for bioanalytical assay validation. […] Due to supply chain disruptions from the COVID-19 pandemic, acyl ghrelin was only measured in plasma samples at timepoints 0, 60, 105, 165 and 255 min. […] Plasma GH was measured by Immunodiagnostic system-iSYS assay (IS-3700; IDS Limited, Boldon, UK). The assay is based on chemiluminesence technology and was performed according to the manufacturer’|'s instructions. […] For analysis of glucagon, plasma was extracted in a final concentration of 70% ethanol. Glucagon was measured using a C-terminal directed antiserum (code number 4305) measuring glucagon of pancreatic origin as previously described.[40] […] Plasma insulin and C-peptide were measured using a two-sided electrochemiluminescence immunoassay (Atellica IM Analyzer; Siemens Healthcare, Ballerup, Denmark). Plasma triglycerides and acetaminophen were analyzed by spectrophotometric methods following enzymatic hydrolysis and oxidation (Siemens Atellica CH 930; Siemens Healthcare, Ballerup, Denmark). Plasma concentrations of free fatty acids and glycerol were determined by enzymatic methods modified to run on a COBAS 6000 automatic analyzer (Roche, Rødovre, Denmark) using a NEFA-HR assay (Wako Chemicals, Neuss, Germany) and glycerol assay (Randox Laboratories, Crumlin, UK), respectively.
Unless otherwise stated, results are presented as mean ± SEM. Baseline values were calculated as a mean of timepoints −35, −10 and 0 min or, when only available −10 and 0 min. Baseline values for the postprandial period were calculated as a mean of timepoint 60 min. Calculations of AUC were based on the trapezoidal rule. AUC values are reported for the period 0 to 255 min. To assess the fasting and postprandial periods separately, AUC values are reported for the periods 0 to 60 min and 60 to 255 min, respectively. Student’s paired t test was used to test for differences in baseline, peak, time to peak, AUC and mean values and ad libitum food intake in men.

[4] = healthy men n = 20, iv LEAP2 ~25 pmol/kg/min, liquid mixed meal at 65 min

CC[C@H](C)[C@@H]1NC(=O)[C@@H]2CSSC[C@@H](C(=O)N[C@@H](CO)C(=O)N[C@@H](CC(C)C)C(=O)N[C@@H](CO)C(=O)N[C@H](C(=O)N[C@@H](C)C(=O)N[C@@H](CCC(N)=O)C(=O)N[C@@H](CCC(=O)O)C(=O)O)C(C)C)NC(=O)[C@H](CCCNC(=N)N)NC(=O)[C@H](CCCNC(=N)N)NC(=O)[C@H](CCCCN)NC(=O)[C@H](CCCNC(=N)N)NC(=O)[C@H](CSSC[C@H](NC(=O)[C@H](CO)NC(=O)[C@H](C)NC(=O)CNC(=O)[C@@H](NC(=O)[C@@H]3CCCN3C(=O)[C@H](CCCNC(=N)N)NC(=O)[C@H](CC(C)C)NC(=O)[C@H](CO)NC(=O)[C@@H](NC(=O)CNC(=O)[C@H](CCCNC(=N)N)NC(=O)[C@H](Cc3c[nH]c4ccccc34)NC(=O)[C@H](Cc3ccccc3)NC(=O)[C@@H]3CCCN3C(=O)[C@@H](NC(=O)[C@@H](N)CCSC)[C@@H](C)O)C(C)C)[C@@H](C)CC)C(=O)N[C@@H](CCCNC(=N)N)C(=O)N[C@@H](CC(=O)O)C(=O)N[C@@H](CC(=O)O)C(=O)N[C@@H](CO)C(=O)N[C@@H](CCC(=O)O)C(=O)N2)NC(=O)[C@H](CC(C)C)NC(=O)[C@H](CCCNC(=N)N)NC(=O)[C@H]([C@@H](C)O)NC1=O [LEAP2, liver-expressed antimicrobial peptide 2] (H-MTPFWRGVSLRPIGASCRDDSECITRLCRKRRCSLSVAQE-OH; disulfide 17-28, 23-33 (inferred); N-terminus and C-terminus assumed)
VAS ratings of hunger, satiety, prospective food consumption, fullness, nausea, comfort, or thirst, LEAP2 vs placebo (healthy men [1]): no differences
half-life of LEAP2 ([2]; healthy men n = 8, iv 10 min at ~101 pmol/kg/min then 110 min at ~25 pmol/kg/min, plasma, radioimmunoassay, one-compartment model (Monolix)): ~9 min
endogenous production rate of LEAP2 ([2]; healthy men n = 8, one-compartment model assuming constant endogenous production): 1.9 ± 0.14 nmol/min
Vd ([2]; male, human, plasma, healthy men n = 8, iv 10 min at ~101 pmol/kg/min then 110 min at ~25 pmol/kg/min, 150-min wash-out, one-compartment model (Monolix), read-out: volume of distribution of LEAP2): 14 ± 5.3 L
clearance ([2]; male, human, plasma, healthy men n = 8, iv 10 min at ~101 pmol/kg/min then 110 min at ~25 pmol/kg/min, one-compartment model (Monolix), read-out: metabolic clearance rate of LEAP2): 860 ± 170 mL/min
half-life ([2]; male, human, healthy men n = 8, iv 10 min at ~101 pmol/kg/min then 110 min at ~25 pmol/kg/min, plasma, radioimmunoassay, one-compartment model (Monolix)): 9.1 ± 2.5 min
Glucagon Baseline (healthy men [3]; healthy men n = 20, LEAP2 day, before infusion): 6.57 ± 0.76 pmol/L
Glucagon AUC (healthy men [3]; healthy men n = 20, iv LEAP2 ~25 pmol/kg/min, 0 to 255 min): 2.26 ± 0.20 nmol·min/L
Glucagon AUC0–60 min (healthy men [3]; healthy men n = 20, iv LEAP2 ~25 pmol/kg/min, fasting period): 0.446 ± 0.044 nmol·min/L
Glucagon Peak (healthy men [3]; [4]): 13.0 ± 0.94 pmol/L
Glucagon Time to peak (healthy men [3]; [4]): 116 ± 12.5 min
Glucagon AUC60–255 min (healthy men [3]; healthy men n = 20, iv LEAP2 ~25 pmol/kg/min, postprandial period): 1.82 ± 0.17 nmol·min/L
Glucagon Postprandial baseline (healthy men [3]; healthy men n = 20, iv LEAP2 ~25 pmol/kg/min, time = 60 min): 7.35 ± 0.82 pmol/L
